Assay results from PubChem BioAssay AID248 (DTP/NCI, 2004).
Several values for one entry are separate records, joined by “and”; a condition that tells them apart may be missing. Equal entries are not always repeated. Toxic doses and inconclusive results are not listed.

Test system: L1210 leukemia ip in BDF1 mice, survival T/C
Test: NCI In Vivo Anticancer Drug Screen. Data for tumor model L1210 Leukemia (intraperitoneal) in B6D2F1 (BDF1) mice
Conditions: endpoint: mean survival time, higher = longer survival
Summary of the method: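 Antitumor effect is assessed in tumor-bearing animals. Survival in the compound arm is compared with a vehicle-dosed control arm and expressed as their quotient.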

For `[N-]=[N+]=CC(=O)NCC(=O)NN`, the T/C (dose: 50.0 mg/kg/injection, schedule: Q01DX Z (sc), vehicle: steriod suspending solution) was 101 % of control, the T/C (dose: 50.0 mg/kg/injection, schedule: Q02DX Z (ip), vehicle: saline) was 102 % of control and the T/C (dose: 50.0 mg/kg/injection, schedule: Q03DX Z (ip), vehicle: saline) was 101 % of control. The T/C (dose: 100.0 mg/kg/injection, schedule: Q01DX001 (ip), vehicle: saline) was 108 % of control, the T/C (dose: 100.0 mg/kg/injection, schedule: Q01DX005 (ip), vehicle: other) was 114 % of control and the T/C (dose: 100.0 mg/kg/injection, schedule: Q01DX009 (ip), vehicle: other) was 115 % of control. For the same molecule, the T/C (dose: 100.0 mg/kg/injection, schedule: Q01DX009 (ip), vehicle: saline) was 119 % of control, the T/C (dose: 100.0 mg/kg/injection, schedule: Q01DX Z (sc), vehicle: steriod suspending solution) was 101 % of control and the T/C (dose: 100.0 mg/kg/injection, schedule: Q02DX Z (ip), vehicle: saline) was 108 % of control. For the same molecule, the T/C (dose: 100.0 mg/kg/injection, schedule: Q03DX Z (ip), vehicle: saline) was 108 % of control, the T/C (dose: 100.0 mg/kg/injection, schedule: Q## X008 (ip), vehicle: water) was 98 % of control and the T/C (dose: 125.0 mg/kg/injection, schedule: Q01DX006 (iv), vehicle: saline) was 98 % of control. The T/C (dose: 125.0 mg/kg/injection, schedule: Q01DX009 (ip), vehicle: other) was 118 % of control, the T/C (dose: 125.0 mg/kg/injection, schedule: Q01DX009 (sc), vehicle: other) was 100 % of control and the T/C (dose: 125.0 mg/kg/injection, schedule: Q01DX017 (ip), vehicle: saline) was 121 % of control. For the same molecule, the T/C (dose: 125.0 mg/kg/injection, schedule: Q01DX Z (ip), vehicle: other) was 116 % of control, the T/C (dose: 200.0 mg/kg/injection, schedule: Q01DX001 (ip), vehicle: saline) was 110 % of control and the T/C (dose: 200.0 mg/kg/injection, schedule: Q01DX Z (ip), vehicle: water) was 124 % of control. The T/C (dose: 200.0 mg/kg/injection, schedule: Q01DX Z (sc), vehicle: steriod suspending solution) was 98 % of control, the T/C (dose: 200.0 mg/kg/injection, schedule: Q03DX Z (ip), vehicle: saline) was 154 % of control and the T/C (dose: 200.0 mg/kg/injection, schedule: Q## X008 (ip), vehicle: water) was 98 % of control. For the same molecule, the T/C (dose: 225.0 mg/kg/injection, schedule: Q01DX Z (ip), vehicle: saline) was 124 % of control, the T/C (dose: 225.0 mg/kg/injection, schedule: Q01DX Z (ip), vehicle: water) was 121 % of control and the T/C (dose: 250.0 mg/kg/injection, schedule: Q01DX006 (iv), vehicle: saline) was 106 % of control. For the same molecule, the T/C (dose: 250.0 mg/kg/injection, schedule: Q01DX009 (ip), vehicle: other) was 156 % of control, the T/C (dose: 250.0 mg/kg/injection, schedule: Q01DX009 (sc), vehicle: other) was 108 % of control and the T/C (dose: 250.0 mg/kg/injection, schedule: Q01DX017 (ip), vehicle: saline) was 124 % of control. For the same molecule, the T/C (dose: 250.0 mg/kg/injection, schedule: Q01DX Z (ip), vehicle: other) was 123 % of control, the T/C (dose: 250.0 mg/kg/injection, schedule: Q02DX005 (ip), vehicle: saline) was 121 % of control and the T/C (dose: 250.0 mg/kg/injection, schedule: Q04DX003 (ip), vehicle: saline) was 110 % of control. For the same molecule, the T/C (dose: 250.0 mg/kg/injection, schedule: Q08DX002 (ip), vehicle: other) was 112 % of control, the T/C (dose: 250.0 mg/kg/injection, schedule: Q## X005 (ip), vehicle: saline) was 111 % of control and the T/C (dose: 300.0 mg/kg/injection, schedule: Q01DX009 (sc), vehicle: other) was 118 % of control. The T/C (dose: 375.0 mg/kg/injection, schedule: Q01DX Z (ip), vehicle: other) was 160 % of control, the T/C (dose: 400.0 mg/kg/injection, schedule: Q01DX001 (ip), vehicle: saline) was 106 % of control and the T/C (dose: 400.0 mg/kg/injection, schedule: Q01DX005 (ip), vehicle: other) was 150 % of control. For the same molecule, the T/C (dose: 400.0 mg/kg/injection, schedule: Q01DX009 (ip), vehicle: saline) was 156 % of control, the T/C (dose: 400.0 mg/kg/injection, schedule: Q01DX Z (im), vehicle: other) was 112 % of control and the T/C (dose: 400.0 mg/kg/injection, schedule: Q01DX Z (ip), vehicle: other) was 157 % of control. The T/C (dose: 400.0 mg/kg/injection, schedule: Q01DX Z (oral), vehicle: other) was 102 % of control, the T/C (dose: 400.0 mg/kg/injection, schedule: Q01DX Z (oral), vehicle: saline) was 116 % of control and the T/C (dose: 400.0 mg/kg/injection, schedule: Q## X008 (ip), vehicle: water) was 103 % of control. For the same molecule, the T/C (dose: 500.0 mg/kg/injection, schedule: Q01DX001 (ip), vehicle: saline) was 111 % of control and 117 % of control, the T/C (dose: 500.0 mg/kg/injection, schedule: Q01DX006 (iv), vehicle: saline) was 110 % of control and the T/C (dose: 500.0 mg/kg/injection, schedule: Q01DX009 (sc), vehicle: other) was 118 % of control. For the same molecule, the T/C (dose: 500.0 mg/kg/injection, schedule: Q01DX Z (ip), vehicle: other) was 118 % of control and 124 % of control, the T/C (dose: 500.0 mg/kg/injection, schedule: Q01DX Z (ip), vehicle: water) was 90 % of control and the T/C (dose: 500.0 mg/kg/injection, schedule: Q## X005 (ip), vehicle: saline) was 114 % of control. The T/C (dose: 500.0 mg/kg/injection, schedule: Q## X024 (ip), vehicle: water) was 112 % of control, the T/C (dose: 600.0 mg/kg/injection, schedule: Q01DX009 (ip), vehicle: saline) was 117 % of control and the T/C (dose: 600.0 mg/kg/injection, schedule: Q01DX Z (im), vehicle: other) was 120 % of control. For the same molecule, the T/C (dose: 600.0 mg/kg/injection, schedule: Q01DX Z (ip), vehicle: water) was 150 % of control, the T/C (dose: 600.0 mg/kg/injection, schedule: Q01DX Z (sc), vehicle: other) was 115 % of control and the T/C (dose: 600.0 mg/kg/injection, schedule: Q## X008 (ip), vehicle: water) was 109 % of control. The T/C (dose: 750.0 mg/kg/injection, schedule: Q01DX009 (sc), vehicle: other) was 118 % of control, the T/C (dose: 750.0 mg/kg/injection, schedule: Q01DX Z (ip), vehicle: other) was 123 % of control and the T/C (dose: 800.0 mg/kg/injection, schedule: Q01DX Z (im), vehicle: other) was 101 % of control. The T/C (dose: 800.0 mg/kg/injection, schedule: Q01DX Z (ip), vehicle: other) was 124 % of control, the T/C (dose: 800.0 mg/kg/injection, schedule: Q01DX Z (oral), vehicle: other) was 117 % of control and the T/C (dose: 800.0 mg/kg/injection, schedule: Q01DX Z (oral), vehicle: saline) was 122 % of control. For the same molecule, the T/C (dose: 800.0 mg/kg/injection, schedule: Q01DX Z (sc), vehicle: other) was 91 % of control, the T/C (dose: 800.0 mg/kg/injection, schedule: Q02DX005 (ip), vehicle: saline) was 183 % of control and the T/C (dose: 800.0 mg/kg/injection, schedule: Q02DX Z (ip), vehicle: other) was 182 % of control. The T/C (dose: 800.0 mg/kg/injection, schedule: Q03DX Z (ip), vehicle: other) was 150 % of control, the T/C (dose: 1000.0 mg/kg/injection, schedule: Q01DX001 (ip), vehicle: saline) was 115 % of control and the T/C (dose: 1000.0 mg/kg/injection, schedule: Q01DX001 (sc), vehicle: other) was 108 % of control. The T/C (dose: 1000.0 mg/kg/injection, schedule: Q01DX006 (iv), vehicle: saline) was 109 % of control, the T/C (dose: 1000.0 mg/kg/injection, schedule: Q01DX Z (ip), vehicle: other) was 100 % of control and the T/C (dose: 1000.0 mg/kg/injection, schedule: Q02DX009 (ip), vehicle: saline) was 119 % of control. The T/C (dose: 1000.0 mg/kg/injection, schedule: Q04DX003 (ip), vehicle: other) was 162 % of control, the T/C (dose: 1000.0 mg/kg/injection, schedule: Q04DX003 (ip), vehicle: saline) was 156 % of control and the T/C (dose: 1000.0 mg/kg/injection, schedule: Q## X005 (ip), vehicle: saline) was 158 % of control. The T/C (dose: 1200.0 mg/kg/injection, schedule: Q02DX Z (ip), vehicle: other) was 98 % of control, the T/C (dose: 1200.0 mg/kg/injection, schedule: Q03DX Z (ip), vehicle: other) was 156 % of control and the T/C (dose: 1250.0 mg/kg/injection, schedule: Q03HX016 (ip), vehicle: saline) was 105 % of control. The T/C (dose: 1500.0 mg/kg/injection, schedule: Q01DX001 (ip), vehicle: other) was 150 % of control, the T/C (dose: 1500.0 mg/kg/injection, schedule: Q01DX001 (ip), vehicle: saline) was 150 % of control and the T/C (dose: 1500.0 mg/kg/injection, schedule: Q01DX001 (sc), vehicle: other) was 107 % of control. The T/C (dose: 1500.0 mg/kg/injection, schedule: Q03HX016 (ip), vehicle: saline) was 96 % of control, the T/C (dose: 1500.0 mg/kg/injection, schedule: Q04DX003 (ip), vehicle: saline) was 180 % of control and the T/C (dose: 1500.0 mg/kg/injection, schedule: Q08DX002 (ip), vehicle: saline) was 164 % of control. For the same molecule, the T/C (dose: 1500.0 mg/kg/injection, schedule: Q## X024 (ip), vehicle: water) was 154 % of control, the T/C (dose: 1600.0 mg/kg/injection, schedule: Q01DX Z (ip), vehicle: other) was 150 % of control and the T/C (dose: 1750.0 mg/kg/injection, schedule: Q03HX016 (ip), vehicle: saline) was 102 % of control. The T/C (dose: 2000.0 mg/kg/injection, schedule: Q01DX001 (ip), vehicle: other) was 168 % of control, the T/C (dose: 2000.0 mg/kg/injection, schedule: Q01DX001 (sc), vehicle: other) was 118 % of control and the T/C (dose: 2000.0 mg/kg/injection, schedule: Q03HX016 (ip), vehicle: saline) was 111 % of control. For the same molecule, the T/C (dose: 2000.0 mg/kg/injection, schedule: Q## X005 (ip), vehicle: saline) was 104 % of control.
